According to patent US20140057829A1, “Citrullinated Histone H3 (Cit H3) in Septic Shock” (THE GENERAL HOSPITAL CORPORATION, priority 2011, published 2014):
“Also recorded” adds a separate entry of the source.

Key:
[1] = system: HL-60 granulocytes; assay: Western blots of H3, Ac H3 and Cit H3 in lysates and medium of LPS-stimulated HL-60 granulocytes; assay type: cell-based, human; conditions: 3 h
Description: Neutrophils might be a source of serum histone H3 during sepsis. To test whether histone H3 deimination/citrullination is induced as part of the neutrophil response to bacterial endotoxin, HL-60 cells obtained from American Type Culture Collection (ATCC) were maintained in Iscove's modified DMEM medium (Invitrogen Life Technologies, Carlsbad, Calif.) supplemented with 20% fetal bovine serum (FBS). These cells were grown at 37° C. in a humidified incubator in 5% CO2 and 95% air, and differentiated into granulocytes by culturing the cells in medium containing 1 μM ATRA for 3 days. The ATRA-differentiated HL-60 granulocytes were treated with 4 μM calcium ionophore in medium containing 1.5 mM calcium chloride, and then incubated with LPS (100 ng/ml) in the presence or absence of SAHA (10 μM) over 3 h. Following incubation, medium was collected, and cell lysates were prepared. The medium and the lysates were tested for H3, Ac H3, Cit H3 and actin (internal control) by Western blots. To ensure there was no false positive data that may be produced from the medium with dead cells, the cells were carefully treated and a sham group was also set up as a control.

[2] = system: histone H3 in serum; assay: iTRAQ screen for serum biomarkers in LPS-induced septic shock and SAHA treatment; assay type: in vivo; conditions: LPS-induced septic shock; 5 h after first SAHA treatment, 3 h after LPS injection
Description: To identify biomarkers of septic shock and treatment, isobaric tag labeling for relative and absolute quantitation (iTRAQ) was performed as described in WO 2010/126635 (which is incorporated herein by reference) in sham (no LPS and no treatment), septic shock (3 h after LPS injection) and SAHA treated (5 h after the first SAHA treatment, and 3 h after LPS injection) animals. Several potential serum biomarkers in LPS-induced septic shock and treatment were found. One of them was histone H3, a chromatin protein in nucleus.

[3] = system: histone H3 in serum; assay: Serum histone H3 by Western blot in LPS-induced septic shock mice treated with or without SAHA; assay type: in vivo; conditions: blood 3 h after LPS
Description: To assure that the data were reliable, independent serum samples were collected and analyzed. As in a previous study (Li et al., Shock. 2009; 32(5): 517-523), male C57B1/6J mice (n=9, 3/group) weighing 25-30 g (purchased from Jackson Labs (Bar Harbor, Me.)) were randomly divided into two groups: LPS control, and SAHA+LPS. Normal saline (10 μl/g body weight) or LPS (20 mg/kg) dissolved in normal saline was injected intraperitoneally. The mice were given DMSO (1 μl/g body weight) or SAHA (50 mg/kg) dissolved in DMSO intraperitoneally 2 hours (h) before, and then soon after injection of LPS. Sham mice (no LPS, no SAHA) were used as the control. Serum separated from these blood samples was saved at −80° C. and used for the current experiment. In the present study, a large dose (35 mg/kg) or a small dose (10 mg/kg) of LPS was administrated intraperitoneally. […] Survival rate was then recorded for over the next 7 days. […]
The samples were analyzed by Western blot with anti-histone H3 antibody. […] The primary antibody was detected by incubation with horseradish peroxidase-coupled second antibody (1:3,000 in PBST with 5% milk) at room temperature for 2 h. […] Films were developed using a standard photographic procedure and quantitative analysis of detected bands was carried out by densitometer scanning using VersaDoc Imaging System (BioRad Laboratories, Hercules, Calif.).

[4] = system: rodent models of LPS-induced septic shock; conditions: rodent models of LPS-induced septic shock (Li et al. 2009, 2010); cited from earlier work
[5] = system: mice; assay: Survival of mice after small or large dose of LPS; assay type: in vivo; conditions: for survival rate: 7 day observation
Description: To assure that the data were reliable, independent serum samples were collected and analyzed. As in a previous study (Li et al., Shock. 2009; 32(5): 517-523), male C57B1/6J mice (n=9, 3/group) weighing 25-30 g (purchased from Jackson Labs (Bar Harbor, Me.)) were randomly divided into two groups: LPS control, and SAHA+LPS. Normal saline (10 μl/g body weight) or LPS (20 mg/kg) dissolved in normal saline was injected intraperitoneally. The mice were given DMSO (1 μl/g body weight) or SAHA (50 mg/kg) dissolved in DMSO intraperitoneally 2 hours (h) before, and then soon after injection of LPS. Sham mice (no LPS, no SAHA) were used as the control. Serum separated from these blood samples was saved at −80° C. and used for the current experiment. In the present study, a large dose (35 mg/kg) or a small dose (10 mg/kg) of LPS was administrated intraperitoneally. All animals were housed in plastic cages and had access to chow and water throughout the experiment. The animals were kept at room temperature (24±2° C.) and exposed to alternative cycles of 12 h light and darkness. Survival rate was then recorded for over the next 7 days. Blood was collected from the orbital sinus (as described in Hoff, Lab Animal. 2000; 29(10): 47-53) at 3 h after LPS injection.
It has been reported that the effects of LPS on lethality and protein expression are dose-dependent (Barton and Jackson, Infect Immun. 1993; 61(4): 1496-1499; Haque et al., Pneumon. 2009; 22(2): 143-155). To determine whether serum levels of H3, Cit H3 and acetylated H3 were dependent on the LPS dose, the mice were injected with a small dose ([…]) or a large dose ([…]). The serum levels of all three histone H3 were then measured and correlated to mortality. Mice were randomly divided into three groups (n=10/group): (1) sham group (no LPS), (2) LPS small dose (SD) group, and (3) LPS large dose (LD) group. Blood was collected at 3 h after LPS injection and serum was prepared for immunoblotting.

[6] = system: serum Cit H3 and H3; assay: Serum Cit H3, H3 and Ac H3 by Western blot after small or large dose of LPS; assay type: in vivo, mice; conditions: 3 h after injection
Description: The samples were analyzed by Western blot with anti-histone H3 antibody. Western blot analysis was performed as follows. Proteins (about 100 μg per lane) were separated by sodium dodecyl sulphate-polyacrylamide gel electrophoresis (SDS-PAGE) on 15% polyacrylamide gels and transferred onto nitrocellulose membranes (Bio-Rad Laboratories, Hercules, Calif.). The membranes were blocked in 0.05% PBS-Tween (PBST) containing 5% milk (Bio-Rad Laboratories, Hercules, Calif.) and then incubated with the primary antibody at 4° C. overnight. The primary antibody was detected by incubation with horseradish peroxidase-coupled second antibody (1:3,000 in PBST with 5% milk) at room temperature for 2 h. The chemiluminescence detection was performed by using WesternLighting Chemiluminescence Reagent Plus (PerkinElmer LAS, Inc., Boston, Mass.). Films were developed using a standard photographic procedure and quantitative analysis of detected bands was carried out by densitometer scanning using VersaDoc Imaging System (BioRad Laboratories, Hercules, Calif.).
It has been reported that the effects of LPS on lethality and protein expression are dose-dependent (Barton and Jackson, Infect Immun. 1993; 61(4): 1496-1499; Haque et al., Pneumon. 2009; 22(2): 143-155). […] The serum levels of all three histone H3 were then measured and correlated to mortality. […]

[7] = system: TNF-α; assay: Serum TNF-α ELISA after small or large dose of LPS; assay type: in vivo, mice; conditions: 3 h after endotoxin insult
Description: There is general agreement that the main pathogenic mediator in lethal septic shock is TNF-α (Beutler and Cerami, Annu Rev Immunol. 7: 625-55, 1989). To determine whether TNF-α can predict lethality of LPS-induced shock as well as Cit H3, blood was collected from sham, LPS (SD), and LPS (LD) groups at 3 h after LPS injection (n=5/group). Quantitative determination of TNF-α in the blood of mice was made using Quantikine Enzyme-Linked Immunosorbent Assay (ELISA) Kit (R&D Systems, Minneapolis, Minn.) according to manufacturer's instruction. The concentration of the cytokine was measured by optical densitometry at 450 nm in a SpectramaxPlus 384 microplate reader (Molecular Devices, Sunnyvale, Calif.). All of the analyses were performed in triplicates.

In the case of `O=C(CCCCCCC(=O)Nc1ccccc1)NO` [SAHA, suberoylanilide hydroxamic acid], the “Cit H3 in cultured cell medium (secretion)” value ([1]; SAHA 10 μM + LPS 100 ng/ml) is reported as “decreases; also recorded: no detectable”, the “H3 in cultured cell medium” value ([1]; SAHA 10 μM + LPS 100 ng/ml) is reported as “no detectable” and the “acetylated H3 in cell lysates” value ([1]; SAHA 10 μM + LPS 100 ng/ml) is reported as “increase”. For the same compound, the “expression of Cit H3 in cell lysates” value ([1]; SAHA 10 μM + LPS 100 ng/ml) was “decreases; also recorded: significantly reduced”, the “histone H3 in serum (iTRAQ)” value [2] was “decreased histone H3 in serum dramatically” and the “serum histone H3 (Western blot)” value ([3]; SAHA 50 mg/kg i.p. 2 h before and soon after LPS 20 mg/kg) was “no histone H3 was detected”. For the same compound, the survival [4] was “improves survival”.

With lipopolysaccharide [LPS] the “Cit H3 in cultured cell medium” value ([1]; LPS 100 ng/ml) was “more”, the “H3 in cultured cell medium” value ([1]; LPS 100 ng/ml) was “more” and the “Cit H3 in cell lysates” value ([1]; LPS 100 ng/ml, compared to sham) was “increase”. For the same compound, the average survival time ([5]; LPS LD (35 mg/kg i.p.)) was “about 20 h”, the “earliest time of death” value ([5]; LPS LD (35 mg/kg i.p.)) was about 16 h and the longest survival time ([5]; LPS LD (35 mg/kg i.p.)) was 23 h. The “time by which all mice died” value ([5]; LPS LD (35 mg/kg i.p.)) was “less than 23 h”, the survival rate ([5]; LPS LD (35 mg/kg i.p.)) was 0% and the “Mice died within 23 h” value ([5]; LPS LD (35 mg/kg i.p.), n = 10) was 10. The average survival time ([5]; LPS SD (10 mg/kg i.p.)) was about 146 h, the “earliest time of death” value ([5]; LPS SD (10 mg/kg i.p.)) was 27 h and the survival rate ([5]; LPS SD (10 mg/kg i.p.)) was 90%. For the same compound, the longest survival time ([5]; LPS SD (10 mg/kg i.p.), 168 h observation) was 168 h, the “Mice died within 23 h” value ([5]; LPS SD (10 mg/kg i.p.), n = 10) was “None” and the “Mice survived over 168 h” value ([5]; LPS SD (10 mg/kg i.p.), n = 10) was 9. The “Serum H3” value ([6]; LPS SD (10 mg/kg i.p.)) was “increase”, the “serum Ac H3” value ([6]; all animals (LPS SD and LD)) was “No Ac H3 was detected” and the “serum TNF-α” value ([7]; LPS LD (35 mg/kg)) was 792 pg/mL. The “serum TNF-α” value ([7]; LPS SD (10 mg/kg)) was 741 pg/mL and the “serum histone H3 (Western blot)” value ([3]; LPS 20 mg/kg i.p. without SAHA) was “a histone H3 band was clearly observed”.
